Laboratory results reported in US20260258035A1, “FIVE-MEMBERED AND SIX-MEMBERED NITROGEN-CONTAINING COMPOUND, AND INTERMEDIATE, PREPARATION METHOD AND USE THEREOF” (HANGZHOU SYNRX THERAPEUTICS BIOMEDICAL TECHNOLOGY CO., LTD., priority 2022, published 2026).

Molecular target: PARG (Homo sapiens, UniProt Q86W56)
Experiment: Biochemical assay (PARG, TFMU-ADPr substrate)
[1] = 4 nM PARG, 66.2 uM TFMU-ADPr, 3 min at room temperature

Sequence of PARG (Q86W56 whole entry): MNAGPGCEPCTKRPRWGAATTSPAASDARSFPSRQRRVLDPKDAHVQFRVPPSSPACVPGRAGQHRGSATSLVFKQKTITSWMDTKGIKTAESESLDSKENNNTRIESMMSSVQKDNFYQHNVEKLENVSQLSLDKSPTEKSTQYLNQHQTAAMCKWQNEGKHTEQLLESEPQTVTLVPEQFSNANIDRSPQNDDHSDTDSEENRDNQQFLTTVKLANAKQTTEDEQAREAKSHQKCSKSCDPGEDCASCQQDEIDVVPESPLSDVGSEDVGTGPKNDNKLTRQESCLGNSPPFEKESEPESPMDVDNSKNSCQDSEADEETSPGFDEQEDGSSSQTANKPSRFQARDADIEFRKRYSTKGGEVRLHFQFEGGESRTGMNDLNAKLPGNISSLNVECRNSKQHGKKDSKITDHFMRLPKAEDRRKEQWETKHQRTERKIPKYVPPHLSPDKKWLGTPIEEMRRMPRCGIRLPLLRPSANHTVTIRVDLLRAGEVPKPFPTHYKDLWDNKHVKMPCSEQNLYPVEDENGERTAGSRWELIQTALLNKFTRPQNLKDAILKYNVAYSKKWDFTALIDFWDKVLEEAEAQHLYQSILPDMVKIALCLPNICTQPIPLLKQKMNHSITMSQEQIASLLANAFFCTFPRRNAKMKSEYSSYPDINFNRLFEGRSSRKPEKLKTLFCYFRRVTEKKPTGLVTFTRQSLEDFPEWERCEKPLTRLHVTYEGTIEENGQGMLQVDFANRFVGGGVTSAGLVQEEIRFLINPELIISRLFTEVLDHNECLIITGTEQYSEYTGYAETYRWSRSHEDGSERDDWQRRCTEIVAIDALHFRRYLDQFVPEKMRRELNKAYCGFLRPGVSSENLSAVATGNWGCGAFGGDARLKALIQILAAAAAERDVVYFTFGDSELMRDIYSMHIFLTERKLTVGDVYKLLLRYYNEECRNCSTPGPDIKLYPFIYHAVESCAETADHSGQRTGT

SMILES | IC50 (PARG, TFMU-ADPr substrate) [nM] | IC50 [1] [nM]
Cc1ncc(-c2cnc3c(N4CCN(C(=O)C(C)C)CC4)cc(S(=O)(=O)NC4(C#N)CC4)cn23)s1 [Example 1, N-(1-cyanocyclopropyl)-8-(4-isobutyrylpiperazin-1-yl)-3-(2-methylthiazol-5-yl)imidazo[1,2-a]pyridine-6-sulfonamide] | 1540 | –
Cc1nnc(-c2cnc3c(N4CCN(C(=O)C(C)C)CC4)cc(S(=O)(=O)NC4(C#N)CC4)cn23)s1 [Example 2, N-(1-cyanocyclopropyl)-8-(4-isobutyrylpiperazin-1-yl)-3-(5-methyl-1,3,4-thiadiazol-2-yl)imidazo[1,2-a]pyridine-6-sulfonamide] | 2100 | –
Cc1cnc(-c2cnc3c(N4CCN(C(=O)C(C)C)CC4)cc(S(=O)(=O)NC4(C#N)CC4)cn23)s1 [Example 3, N-(1-cyanocyclopropyl)-8-(4-isobutyrylpiperazin-1-yl)-3-(5-methylthiazol-2-yl)imidazo[1,2-a]pyridine-6-sulfonamide] | 33.1 | –
CC(C)C(=O)N1CCN(c2cc(S(=O)(=O)NC3(C#N)CC3)cn3c(-c4cc5n(n4)CCCC5F)cnc23)CC1 (stereo not shown) [Example 8] | 9690 | –
CC(C)C(=O)N1CCN(c2cc(S(=O)(=O)NC3(C#N)CC3)cn3c(-c4cc5n(n4)CC(F)C5)cnc23)CC1 (stereo not shown) [Example 10, N-(1-cyanocyclopropyl)-3-(5-fluoro-5,6-dihydro-4H-pyrrolo[1,2-b]pyrazol-2-yl)-8-(4-isobutyrylpiperazin-1-yl)imidazo[1,2-a]pyridine-6-sulfonamide] | – | 500 to 1000
CC(=O)N1CC2(CC=C(c3cc(S(=O)(=O)NC4(C#N)CC4)cn4c(-c5nnc(C(F)F)s5)cnc34)C2)C1 [Example 13, 8-(2-acetyl-2-azaspiro[3.4]oct-6-en-6-yl)-N-(1-cyanocyclopropyl)-3-(5-(difluoromethyl)-1,3,4-thiadiazol-2-yl)imidazo[1,2-a]pyridine-6-sulfonamide] | 10.9 | < 100
CC(C)C(=O)N1CCN(c2cc(S(=O)(=O)NC3COC3)cn3c(-c4nnc(C(F)F)s4)cnc23)CC1 [Example 16, 3-(5-(difluoromethyl)-1,3,4-thiadiazol-2-yl)-8-(4-isobutyrylpiperazin-1-yl)-N-(oxetan-3-yl)imidazo[1,2-a]pyridine-6-sulfonamide] | 29.7 | < 100
C=CC(=O)N1CC=C(c2cnc3c(N4CCN(C(=O)C(C)C)CC4)cc(S(=O)(=O)NC4(C#N)CC4)cn23)C1 [Example 18, 3-(1-acryloyl-2,5-dihydro-1H-pyrrol-3-yl)-N-(1-cyanocyclopropyl)-8-(4-isobutyrylpiperazin-1-yl)imidazo[1,2-a]pyridine-6-sulfonamide] | 40 | < 100
C=CC(=O)N1CCC(c2cnc3c(N4CCN(C(=O)C(C)C)CC4)cc(S(=O)(=O)NC4(C#N)CC4)cn23)C1 (stereo not shown) [Example 19, 3-(1-acryloylpyrrolidin-3-yl)-N-(1-cyanocyclopropyl)-8-(4-isobutyrylpiperazin-1-yl)imidazo[1,2-a]pyridine-6-sulfonamide] | 7240 | –
CCC(=O)N1CC=C(c2cnc3c(N4CCN(C(=O)C(C)C)CC4)cc(S(=O)(=O)NC4(C#N)CC4)cn23)C1 [Example 20, N-(1-cyanocyclopropyl)-8-(4-isobutyrylpiperazin-1-yl)-3-(1-propionyl-2,5-dihydro-1H-pyrrol-3-yl)imidazo[1,2-a]pyridine-6-sulfonamide] | 178 | < 100
C=CC(=O)N1CC=C(c2cnc3c(N4CCN(C(=O)C(C)C)CC4)cc(S(=O)(=O)NC4(C#N)CC4)cn23)CC1 [Example 21, 3-(1-acryloyl-1,2,3,6-tetrahydropyridin-4-yl)-N-(1-cyanocyclopropyl)-8-(4-isobutyrylpiperazin-1-yl)imidazo[1,2-a]pyridine-6-sulfonamide] | 912 | –
Cc1ncc(-c2cnn3c(N4CCN(C(=O)C(C)C)CC4)cc(S(=O)(=O)NC4(C#N)CC4)cc23)s1 [Example 28, N-(1-cyanocyclopropyl)-7-(4-isobutyrylpiperazin-1-yl)-3-(2-methylthiazol-5-yl)pyrazolo[1,5-a]pyridine-5-sulfonamide] | 33 | < 100
CC(C)C(=O)N1CCN(c2cc(S(=O)(=O)NC(C3CC3)C(F)(F)F)cn3c(-c4nnc(C(F)F)s4)ncc23)CC1 (stereo not shown) [Example 36, N-(1-cyclopropyl-2,2,2-trifluoroethyl)-3-(5-(difluoromethyl)-1,3,4-thiadiazol-2-yl)-8-(4-isobutyrylpiperazin-1-yl)imidazo[1,5-a]pyridine-6-sulfonamide] | 649 | 500 to 1000
COc1ccc(N(C)c2cc(S(=O)(=O)NC3(C#N)CC3)cn3c(-c4nnc(C(F)F)s4)ncc23)cc1 [Example 45, N-(1-cyanocyclopropyl)-3-(5-(difluoromethyl)-1,3,4-thiadiazol-2-yl)-8-((4-methoxyphenyl)(methyl)amino)imidazo[1,5-a]pyridine-6-sulfonamide] | 135 | 100 to 500
CC(C)C(=O)N1CCN(c2cc(S(=O)(=O)N[C@H]3C[C@@H]3F)cn3c(-c4nnc(C(F)F)s4)ncc23)CC1 [Example 81, 3-(5-(difluoromethyl)-1,3,4-thiadiazol-2-yl)-N-((1S,2S)-2-fluorocyclopropyl)-8-(4-isobutyrylpiperazin-1-yl)imidazo[1,5-a]pyridine-6-sulfonamide] | – | > 1000

Other lines, results leading:

IC50 (PARG, TFMU-ADPr substrate) [nM] | IC50 [1] [nM] | SMILES
16.4 | < 100 | CN1CCN(c2cc(S(=O)(=O)NC3(C#N)CC3)cn3c(-c4nnc(C(F)F)s4)ncc23)CC1 [Example 38, N-(1-cyanocyclopropyl)-3-(5-(difluoromethyl)-1,3,4-thiadiazol-2-yl)-8-(4-methylpiperazin-1-yl)imidazo[1,5-a]pyridine-6-sulfonamide]
29.8 | < 100 | CN1CCN(c2cc(S(=O)(=O)NC3(C#N)CC3)cn3c(-c4nnc(C(F)F)s4)ncc23)CC1=O [Example 41, N-(1-cyanocyclopropyl)-3-(5-(difluoromethyl)-1,3,4-thiadiazol-2-yl)-8-(4-methyl-3-oxopiperazin-1-yl)imidazo[1,5-a]pyridine-6-sulfonamide]
18 | < 100 | N#CC1(NS(=O)(=O)c2cc(N3CCC(O)C3)c3cnc(-c4nnc(C(F)F)s4)n3c2)CC1 (stereo not shown) [Example 42, N-(1-cyanocyclopropyl)-3-(5-(difluoromethyl)-1,3,4-thiadiazol-2-yl)-8-(3-hydroxypyrrolidin-1-yl)imidazo[1,5-a]pyridine-6-sulfonamide]
10.7 | < 100 | Cc1ncc2n1CCN(c1cc(S(=O)(=O)NC3(C#N)CC3)cn3c(-c4nnc(C(F)F)s4)ncc13)C2 [Example 44, N-(1-cyanocyclopropyl)-3-(5-(difluoromethyl)-1,3,4-thiadiazol-2-yl)-8-(3-methyl-5,6-dihydroimidazo[1,5-a]pyrazin-7(8H)-yl)imidazo[1,5-a]pyridine-6-sulfonamide]
6.31 | < 100 | O=S(=O)(NC1(CF)CC1)c1cc(N2CCC(O)C2)c2cnc(-c3nnc(C(F)F)s3)n2c1 (stereo not shown) [Example 46, 3-(5-(difluoromethyl)-1,3,4-thiadiazol-2-yl)-N-(1-(fluoromethyl)cyclopropyl)-8-(3-hydroxypyrrolidin-1-yl)imidazo[1,5-a]pyridine-6-sulfonamide]
5.91 | < 100 | N#CC1(NS(=O)(=O)c2cc(N3CCC(OCC(F)(F)F)CC3)c3cnc(-c4nnc(C(F)F)s4)n3c2)CC1 [Example 47, N-(1-cyanocyclopropyl)-3-(5-(difluoromethyl)-1,3,4-thiadiazol-2-yl)-8-(4-(2,2,2-trifluoroethoxy)piperidin-1-yl)imidazo[1,5-a]pyridine-6-sulfonamide]
13.2 | < 100 | N#CC1(NS(=O)(=O)c2cc(N3CCC(OC(F)(F)F)CC3)c3cnc(-c4nnc(C(F)F)s4)n3c2)CC1 [Example 48, N-(1-cyanocyclopropyl)-3-(5-(difluoromethyl)-1,3,4-thiadiazol-2-yl)-8-(4-(trifluoromethoxy)piperidin-1-yl)imidazo[1,5-a]pyridine-6-sulfonamide]
38.4 | < 100 | CC(C)C(=O)N1CCN(c2cc(S(=O)(=O)NC3(COC(F)(F)F)CC3)cn3c(-c4nnc(C(F)F)s4)ncc23)CC1 [Example 49, 3-(5-(difluoromethyl)-1,3,4-thiadiazol-2-yl)-8-(4-isobutyrylpiperazin-1-yl)-N-(1-((trifluoromethoxy)methyl)cyclopropyl)imidazo[1,5-a]pyridine-6-sulfonamide]
41.7 | < 100 | CC1(O)CCN(c2cc(S(=O)(=O)NC3(CF)COC3)cn3c(-c4nnc(C(F)F)s4)ncc23)CC1 [Example 73, 3-(5-(difluoromethyl)-1,3,4-thiadiazol-2-yl)-N-(3-(fluoromethyl)oxetan-3-yl)-8-(4-hydroxy-4-methylpiperidin-1-yl)imidazo[1,5-a]pyridine-6-sulfonamide]
52.5 | < 100 | N#CC1(NS(=O)(=O)c2cc(N3CC4COCC4C3)c3cnc(-c4nnc(C(F)F)s4)n3c2)CC1 (stereo not shown) [Example 79, N-(1-cyanocyclopropyl)-3-(5-(difluoromethyl)-1,3,4-thiadiazol-2-yl)-8-(tetrahydro-1H-furo[3,4-c]pyrrol-5(3H)-yl)imidazo[1,5-a]pyridine-6-sulfonamide]
347 | 100 to 500 | CC(N1CCN(c2cc(S(=O)(=O)NC3(C#N)CC3)cn3c(-c4nnc(C(F)F)s4)ncc23)C[C@H]1C)C(F)(F)F (stereo partly drawn) [Example 83, N-(1-cyanocyclopropyl)-3-(5-(difluoromethyl)-1,3,4-thiadiazol-2-yl)-8-((3R)-3-methyl-4-(1,1,1-trifluoropropan-2-yl)piperazin-1-yl)imidazo[1,5-a]pyridine-6-sulfonamide]
115 | 100 to 500 | N#CC1(NS(=O)(=O)c2cc(N3CCC(O)(C(F)(F)F)CC3)c3cnc(-c4nnc(C(F)F)s4)n3c2)CC1 [Example 89, N-(1-cyanocyclopropyl)-3-(5-(difluoromethyl)-1,3,4-thiadiazol-2-yl)-8-(4-hydroxy-4-(trifluoromethyl)piperidin-1-yl)imidazo[1,5-a]pyridine-6-sulfonamide]
